Reference: PMC3445454, “Broad and Cross-Clade CD4^+ T-Cell Responses Elicited by a DNA Vaccine Encoding Highly Conserved and Promiscuous HIV-1 M-Group Consensus Peptides” (PLoS ONE, 2012)
Where a chain is given by its changes, count along the chain named. Like-named read-outs stand apart in the source and are kept apart here. Ends that are not written are not given here.

Assays:
Experiment in all cases: biochemical
Assay type in all cases: binding
HLA-DR DRB1*03:01 = HLA-DR DRB1*03:01 (Homo sapiens, UniProt P01903+P01911, A100K/A102G/A103R/A169T/F55Y/I96L/K41T/L162R/M171V/P40S/Q125H/Q178H/Q39Y/R42S/S66N/T106N/T262R/W38E/Y61H)
HLA-DR DRB1*03:01, sequence (P01903 26-254 limits assumed, other chains not shown): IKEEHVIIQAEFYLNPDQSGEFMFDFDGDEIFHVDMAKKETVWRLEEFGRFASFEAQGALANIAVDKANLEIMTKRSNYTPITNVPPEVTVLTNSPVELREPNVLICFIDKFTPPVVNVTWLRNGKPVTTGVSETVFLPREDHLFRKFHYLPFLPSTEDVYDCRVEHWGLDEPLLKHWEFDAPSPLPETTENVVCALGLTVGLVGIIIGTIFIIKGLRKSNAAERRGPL
HLA-DR DRB1*04:05 = HLA-DR DRB1*04:05 (Homo sapiens, UniProt P01903+P01911, A100R/A169T/D86S/F76Y/I96L/K127E/L162R/M171V/N62H/P40V/Q125Y/R42H/S133A/S149N/S66Y/V115G/V209L/W38E)
HLA-DR DRB1*09:01 = HLA-DR DRB1*09:01 (Homo sapiens, UniProt P01903+P01911, A100R/A103E/D57H/D86V/F55Y/F60I/F76Y/I96F/K127E/L162R/M171V/P40D/Q125H/Q99R/R33Q/R42F/S133A/S66N/T210M/V115G/W38K/Y107V/Y59G/Y89S)
HLA-DR DRB1*11:01 = HLA-DR DRB1*11:01 (Homo sapiens, UniProt P01903+P01911, A100R/A169T/A87E/I96F/K41T/L162R/M171V/P40S/Q125H/Q178H/Q39Y/Q99D/R42S/S66Y/T262R/V115G/W38E)
HLA-DR DRB1*11:01, sequence (P01903 26-254 limits assumed, other chains not shown): as above
HLA-DR DRB1*15:01 = HLA-DR DRB1*15:01 (Homo sapiens, UniProt P01903+P01911)
HLA-DR DRB3*01:01 = HLA-DR DRB3*01:01 (Homo sapiens, UniProt P01903+P79483)
HLA-DR DRB3*02:02 = HLA-DR DRB3*02:02 (Homo sapiens, UniProt P01903+P79483, A212P/D57E/F66Y/L67A/R103Q/R218S/R40L/S89Y/T80R/V86D/Y55F/Y59H)
HLA-DR DRB3*02:02, sequence (P01903 26-254 limits assumed): as the sequence (P01903 26-254 limits assumed, other chains not shown) above
HLA-DR DRB3*02:02, sequence (P79483 30-266 R40L/Y55F/D57E/Y59H/F66Y/L67A/T80R/V86D/S89Y/R103Q/A212P/R218S limits assumed): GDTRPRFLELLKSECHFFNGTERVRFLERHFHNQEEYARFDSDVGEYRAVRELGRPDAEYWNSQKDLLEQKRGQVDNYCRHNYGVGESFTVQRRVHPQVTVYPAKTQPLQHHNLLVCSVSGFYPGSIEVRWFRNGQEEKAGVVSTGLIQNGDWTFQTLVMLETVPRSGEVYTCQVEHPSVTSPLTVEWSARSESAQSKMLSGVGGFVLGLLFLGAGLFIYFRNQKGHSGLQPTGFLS
HLA-DR DRB5*01:01 = HLA-DR DRB5*01:01 (Homo sapiens, UniProt P01903+Q30154)
[1] = biological target: T1, HLA-DP DPA1*01:03/DPB1*02:01 (Homo sapiens, UniProt P04440+P20036, A65V/A84D/A85E/K98E)
T1 sequence (P20036 29-260): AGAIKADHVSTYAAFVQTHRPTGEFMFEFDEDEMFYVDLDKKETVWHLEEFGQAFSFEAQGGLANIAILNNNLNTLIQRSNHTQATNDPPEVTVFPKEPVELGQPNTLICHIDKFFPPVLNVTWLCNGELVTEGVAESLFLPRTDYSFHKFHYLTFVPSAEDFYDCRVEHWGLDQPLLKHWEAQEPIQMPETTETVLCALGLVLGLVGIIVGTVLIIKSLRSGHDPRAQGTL
T1 sequence (P04440 30-258 A65V/A84D/A85E/K98E): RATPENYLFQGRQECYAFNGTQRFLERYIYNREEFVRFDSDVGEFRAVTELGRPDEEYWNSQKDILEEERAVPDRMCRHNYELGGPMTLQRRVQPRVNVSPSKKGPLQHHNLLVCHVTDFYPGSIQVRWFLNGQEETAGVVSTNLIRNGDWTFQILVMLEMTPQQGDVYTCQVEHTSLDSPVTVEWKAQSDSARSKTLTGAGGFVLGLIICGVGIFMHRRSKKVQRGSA

[2] = biological target: T2, HLA-DP DPA1*01:03/DPB1*03:01 (Homo sapiens, UniProt P04440+P20036, A65V/A84D/A85E/E86D/F38Y/G113D/G114E/G40L/I94L/L37V/M105V/M116V/P115A/R125K/T199I)
T2 sequence (P20036 29-260): T1 sequence (P20036 29-260)
T2 sequence (P04440 30-258 L37V/F38Y/G40L/A65V/A84D/A85E/E86D/I94L/M105V/G113D/G114E/P115A/M116V/R125K/T199I): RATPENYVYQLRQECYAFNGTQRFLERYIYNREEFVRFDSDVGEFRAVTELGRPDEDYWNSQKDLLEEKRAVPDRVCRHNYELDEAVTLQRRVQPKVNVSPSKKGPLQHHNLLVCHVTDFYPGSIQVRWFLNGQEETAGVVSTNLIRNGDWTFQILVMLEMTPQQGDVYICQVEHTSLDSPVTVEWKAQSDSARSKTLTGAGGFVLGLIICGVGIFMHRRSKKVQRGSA

[3] = biological target: T3, HLA-DP DPA1*02:01/DPB1*05:01 (Homo sapiens, UniProt P04440+P20036, A65V/A84E/F191V/F64L/G113D/G114E/K142R/L158P/M116V/M62Q/P115A/Q81R/R125K/T114A/T199I/T259P/V234M)
T3 sequence (P20036 29-260 A42M/M62Q/Q81R/T114A/K142R/L158P/F191V/T259P): T1 sequence (P20036 29-260) with A14M, M34Q, Q53R, T86A, K114R, L130P, F163V, T231P
T3 sequence (P04440 30-258 F64L/A65V/A84E/G113D/G114E/P115A/M116V/R125K/T199I/V234M): T2 sequence (P04440 30-258 L37V/F38Y/G40L/A65V/A84D/A85E/E86D/I94L/M105V/G113D/G114E/P115A/M116V/R125K/T199I) with V8L, Y9F, L11G, F35L, D55E, E56A, D57E, L65I, V76M, V205M

HLA-DR DRB1*13:02 = HLA-DR DRB1*13:02 (Homo sapiens, UniProt P01903+P01911, A100E/A169T/K41T/L162R/M171V/P40S/Q125H/Q178H/Q39Y/Q99D/R42S/S66N/T262R/V115G/W38E/Y61H)
HLA-DR DRB1*13:02, sequence (P01903 26-254 limits assumed, other chains not shown): as the sequence (P01903 26-254 limits assumed, other chains not shown) above

[4] = read-out: Binding capacity/IC50 (nM) DRB1*03:01
[5] = read-out: Binding capacity/IC50 (nM) DRB1*04:05
[6] = read-out: Binding capacity/IC50 (nM) DRB1*09:01
[7] = read-out: Binding capacity/IC50 (nM) DRB1*11:01
[8] = read-out: Binding capacity/IC50 (nM) DRB3*02:02
[9] = read-out: Binding capacity/IC50 (nM) DRB5*01:01
[10] = read-out: Binding capacity/IC50 (nM) DPA1*01:03 DPB1*02:01
[11] = read-out: Binding capacity/IC50 (nM) DPA1*02:01 DPB1*05:01
[12] = read-out: Binding capacity/IC50 (nM) DRB1*13:02
[13] = read-out: Binding capacity/IC50 (nM) DRB1*15:01
[14] = read-out: Binding capacity/IC50 (nM) DRB3*01:01
[15] = read-out: Binding capacity/IC50 (nM) DPA1*01:03 DPB1*03:01

| Compound | IC50 (HLA-DR DRB1*03:01; [4]) [nM] | IC50 (HLA-DR DRB1*04:05; [5]) [nM] | IC50 (HLA-DR DRB1*09:01; [6]) [nM] | IC50 (HLA-DR DRB1*11:01; [7]) [nM] | IC50 (HLA-DR DRB3*01:01) [nM] | IC50 (HLA-DR DRB3*02:02; [8]) [nM] | IC50 (HLA-DR DRB5*01:01; [9]) [nM] | IC50 [1, 10] [nM] | IC50 [2] [nM] | IC50 [3, 11] [nM] | IC50 (HLA-DR DRB1*13:02; [12]) [nM] | IC50 (HLA-DR DRB1*15:01; [13]) [nM] | IC50 (HLA-DR DRB3*01:01; [14]) [nM] | IC50 (HLA-DR DRB3*02:02) [nM] | IC50 [2, 15] [nM] | other results |
| --- | --- | --- | --- | --- | --- | --- | --- | --- | --- | --- | --- | --- | --- | --- | --- | --- |
| CC[C@H](C)[C@H](NC(=O)CNC(=O)[C@H](CCCCN)NC(=O)[C@H](Cc1c[nH]cn1)NC(=O)[C@H](C)NC(=O)[C@@H]1CCCN1C(=O)[C@@H](NC(=O)[C@H](Cc1c[nH]c2ccccc12)NC(=O)[C@H](CO)NC(=O)[C@H](CC(C)C)NC(=O)[C@H](Cc1ccc(O)cc1)NC(=O)[C@@H](NC(=O)[C@H](CCCCN)NC(=O)[C@H](CCC(=O)O)NC(=O)[C@@H](N)CCCCN)C(C)C)C(C)C)C(=O)NCC(=O)NCC(=O)N[C@@H](CC(N)=O)C(=O)N[C@@H](CCC(=O)O)C(N)=O [RT(528-546)] | 612 | 41 | 33 | 3150 | 576 | 82 | 16 | 45 | 76 | 3560 | – | – | – | – | – | IC50 (HLA-DR DRB1*15:01): 97 nM |
| YAKMRSAHTNDVKQL-NH2 [RT(354-368)] | 7100 | 926 | 66 | 1760 | – | 2850 | 80 | 687 | 11900 | 2190 | 74 | 773 | – | – | – | – |
| VGSLQYLALTALITPKK-NH2 [vif(142-158)] | – | – | – | – | – | – | – | 76 | 74 | 20 | – | 3.8 | 942 | 577 | – | IC50 (HLA-DR DRB1*03:01): 4510 nM; IC50 (HLA-DR DRB1*04:05): 2.3 nM; IC50 (HLA-DR DRB1*09:01): 64 nM; IC50 (HLA-DR DRB1*11:01): 48 nM; IC50 (HLA-DR DRB1*13:02): 7.1 nM; IC50 (HLA-DR DRB5*01:01): 2.4 nM |
| SEELRSLYNTVATLYCVHQ-NH2 [p17(72-90)] | 652 | 421 | 217 | 1070 | – | 6290 | 435 | 67 | 1740 | 1900 | 1050 | 143 | 907 | – | – | – |
| IRYPLTFGWCFKLVPVDPREVEEA-NH2 [nef(133-156)] | 704 | 398 | 360 | 4540 | – | > 30000 | – | 119 | – | 4780 | 4290 | – | 3440 | – | 5360 | IC50 (HLA-DR DRB1*15:01): 718 nM; IC50 (HLA-DR DRB5*01:01): 317 nM |
| CC[C@H](C)[C@H](NC(=O)[C@H](Cc1ccc(O)cc1)NC(=O)CNC(=O)[C@H](CO)NC(=O)[C@H](C)NC(=O)[C@@H](NC(=O)[C@H](Cc1c[nH]cn1)NC(=O)[C@@H](NC(=O)[C@H](C)NC(=O)[C@@H](NC(=O)[C@H](CC(C)C)NC(=O)[C@@H](NC(=O)[C@@H](NC(=O)[C@H](CCCCN)NC(=O)CNC(=O)[C@@H](N)CCC(=O)O)[C@@H](C)CC)[C@@H](C)CC)C(C)C)C(C)C)C(C)C)C(=O)N[C@@H](CCC(=O)O)C(N)=O [integrase(69-85)] | 7940 | 430 | 58 | – | – | 7190 | 523 | 4.5 | – | 2710 | 17000 | 146 | 624 | – | 1990 | – |
| DEELLKAVRIIKILYQSNP-NH2 [rev(9-27)] | 632 | 64 | 124 | 2120 | – | 4.4 | – | – | – | 370 | – | – | 978 | – | 466 | IC50 [1]: 7 nM |
| IVALIIAIVVWTIV-NH2 [vpu(13-26)] | > 30000 | 14900 | 6640 | 12700 | – | – | > 30000 | 29900 | – | > 30000 | > 30000 | 2030 | – | > 30000 | 2580 | – |
| CC[C@H](C)[C@H](NC(=O)[C@@H]1CCCN1C(=O)[C@H](CCC(=O)O)NC(=O)[C@@H](N)CCCCN)C(=O)N[C@H](C(=O)NCC(=O)N[C@@H](C)C(=O)N[C@@H](CCC(=O)O)C(=O)N[C@H](C(=O)N[C@@H](Cc1ccccc1)C(=O)N[C@@H](Cc1ccc(O)cc1)C(=O)N[C@H](C(=O)N[C@@H](CC(=O)O)C(=O)NCC(=O)N[C@@H](C)C(N)=O)C(C)C)[C@@H](C)O)C(C)C [RT(431-445)] | – | 50 | 23 | 3190 | 13 | – | 148 | 30 | 28400 | > 30000 | 266 | 230 | – | 611 | – | – |
| LNKIVRMYSPVSILDI-NH2 [p24(138-153)] | – | 49 | 36 | 79 | – | – | – | – | – | 220 | – | – | – | – | 16 | IC50 [1]: 357 nM |
| EAVRHFPRPWLHGL-NH2 [vpr(29-42)] | – | – | – | – | 7870 | – | 731 | 2140 | 11 | 8450 | – | 112 | – | 9490 | – | IC50 (HLA-DR DRB1*03:01): > 30000 nM; IC50 (HLA-DR DRB1*09:01): 1270 nM; IC50 (HLA-DR DRB1*11:01): > 30000 nM |
| NYPIVQNLQGQMVHQAISPR-NH2 [p17(131-132)/p24(1-18)] | – | 428 | 248 | 1130 | 517 | 2880 | – | 55 | – | – | – | 211 | – | – | 344 | IC50 [3]: 2520 nM |
